Experimental findings from the Biogen ADME set (Fang et al. 2023) are described below.

Molecules are shown by their SMILES. Values after ≈ are worked out from the molar mass of the structure shown.

The conditions of this series: for aqueous solubility: pH 6.8.

By aqueous solubility is commonly meant the dissolved amount per volume that the medium holds. `COc1cc(CN(C)C(=O)Nc2cccc(C)c2C)ccc1O` yielded an intrinsic clearance, human liver microsomes of 15.5 mL/min/kg; an intrinsic clearance, rat liver microsomes of 137 mL/min/kg; an aqueous solubility of 51.8 µg/mL (≈ 165 µM).
Consider `O=C1Oc2nc3cc4c(cc3cc2CN1CCN1CCOCC1)OCCO4`, for which the MDR1-MDCK efflux ratio turned out to be 3.87; the intrinsic clearance, human liver microsomes is at most 4.74 mL/min/kg; the intrinsic clearance, rat liver microsomes was at most 10.7 mL/min/kg; the aqueous solubility stood at 80.5 µg/mL (≈ 217 µM).
Molecule `CCCn1ncc(CN2CCC(c3ncc[nH]3)CC2)c1C` gave an intrinsic clearance, human liver microsomes of 7.33 mL/min/kg and an intrinsic clearance, rat liver microsomes of 498 mL/min/kg.
`CC(C)(C)Cc1nnc(-c2cnc3onc(C4CCCC4)c3c2)o1` showed an aqueous solubility of 3.99 µg/mL (≈ 12.2 µM).
As for `CC1(C)Oc2ccc(Cl)cc2[C@@H]2O[C@@H]3CCNC[C@@H]3C[C@H]21`, the MDR1-MDCK efflux ratio was determined as 11.3; the intrinsic clearance, human liver microsomes is at most 4.74 mL/min/kg; the intrinsic clearance, rat liver microsomes stood at 103 mL/min/kg; the aqueous solubility stood at 42.5 µg/mL (≈ 138 µM).
Take `O=C(NCc1nncn1-c1ccccc1)C1CCCC1`: the MDR1-MDCK efflux ratio worked out at 20.8; the intrinsic clearance, human liver microsomes is at most 4.74 mL/min/kg; the intrinsic clearance, rat liver microsomes was determined as 12.2 mL/min/kg; the aqueous solubility turned out to be 43.3 µg/mL (≈ 160 µM).
As to `O=c1[nH]c2nc(N3CCc4ccccc4C3)ncc2c(=O)n1-c1ccccc1`, the MDR1-MDCK efflux ratio worked out at 0.445 and the aqueous solubility amounted to 0.2 µg/mL (≈ 0.539 µM).
With `Cc1ncc(CN2CC[C@@H](Nc3cncc(Cl)n3)[C@@H](C)C2)s1`, the MDR1-MDCK efflux ratio was 0.974; the fraction unbound, human plasma worked out at 0.16; the fraction unbound, rat plasma came to 0.184; the intrinsic clearance, human liver microsomes was 75.6 mL/min/kg. Further, the intrinsic clearance, rat liver microsomes stood at 637 mL/min/kg and the aqueous solubility is 52.8 µg/mL (≈ 156 µM).
With `O=C(NC1CC1)c1cccnc1Oc1ccccc1`, the MDR1-MDCK efflux ratio worked out at 0.592; the intrinsic clearance, human liver microsomes was at most 4.74 mL/min/kg; the intrinsic clearance, rat liver microsomes is 11.7 mL/min/kg; the aqueous solubility was found to be 65.2 µg/mL (≈ 257 µM).
Take `CCCn1ccnc1CNc1nc2c(s1)c(C)nn2C`: the MDR1-MDCK efflux ratio is 8.95; the intrinsic clearance, human liver microsomes came out at 6.75 mL/min/kg; the intrinsic clearance, rat liver microsomes stood at 129 mL/min/kg; the aqueous solubility turned out to be 31 µg/mL (≈ 107 µM).
The matching figures for `CN1CCN(c2ncncc2-c2nc(-c3ccccc3)no2)CC1`: 0.527, 28.1 mL/min/kg, 484 mL/min/kg and 56.4 µg/mL (≈ 175 µM).
For `CN1CCN(c2cccc(C#N)n2)CC1`, the intrinsic clearance, human liver microsomes was at most 4.74 mL/min/kg and the intrinsic clearance, rat liver microsomes is 617 mL/min/kg.
For the molecule `Cc1cn2nc(-c3cc(=O)n4cc(N5CCNC6(CC6)C5)ccc4n3)cc(C)c2n1`, the MDR1-MDCK efflux ratio turned out to be 12.7; the fraction unbound, human plasma was found to be 0.0967; the intrinsic clearance, human liver microsomes came to 17.5 mL/min/kg; the aqueous solubility worked out at 36 µg/mL (≈ 89.7 µM).
Molecule `COc1ccc2c(c1)CCCN(C(=O)NCCc1ccccn1)C2` gave an intrinsic clearance, human liver microsomes of 174 mL/min/kg and an intrinsic clearance, rat liver microsomes of 1400 mL/min/kg.
For `C[C@@H]1CN(Cc2ccccc2)C[C@H]1c1nc2c(cnn2C2CCOCC2)c(=O)[nH]1`, the MDR1-MDCK efflux ratio is 14.3; the intrinsic clearance, human liver microsomes turned out to be 36.3 mL/min/kg; the intrinsic clearance, rat liver microsomes came to 321 mL/min/kg.
In the case of `c1ccc(-c2noc(NCC3CCC3)n2)cc1`, the MDR1-MDCK efflux ratio amounted to 0.605; the intrinsic clearance, human liver microsomes was determined as 119 mL/min/kg; the intrinsic clearance, rat liver microsomes amounted to 741 mL/min/kg; the aqueous solubility came to 34.7 µg/mL (≈ 151 µM).
The matching figures for `CCOc1cccc(CNCCc2c[nH]c3ccccc23)c1`: 0.628, 90.8 mL/min/kg, 1330 mL/min/kg and 73 µg/mL (≈ 248 µM).
`Cc1ccc2nc(-c3ccc(N(C)C)cc3)[nH]c2c1`: the MDR1-MDCK efflux ratio was 0.316; the intrinsic clearance, human liver microsomes came to 120 mL/min/kg; the intrinsic clearance, rat liver microsomes was found to be 2530 mL/min/kg; the aqueous solubility worked out at 11.4 µg/mL (≈ 45.5 µM).
Turning to `O=c1c2cccnc2ncn1[C@H]1CCCc2ccccc21`, the MDR1-MDCK efflux ratio turned out to be 0.837; the intrinsic clearance, human liver microsomes is at most 4.74 mL/min/kg; the intrinsic clearance, rat liver microsomes was 119 mL/min/kg.
In the case of `CCc1nc(C(N)=O)c(Nc2ccc(N3CCC(N4CCN(C)CC4)CC3)c(OC)c2)nc1NC1CCOCC1`, the MDR1-MDCK efflux ratio amounted to 133; the intrinsic clearance, human liver microsomes was found to be 15 mL/min/kg; the intrinsic clearance, rat liver microsomes was found to be 14.7 mL/min/kg; the aqueous solubility is 36.3 µg/mL (≈ 65.7 µM).
The matching figures for `C[C@@H](/C=C\C(F)(F)F)Oc1cc(-c2cc(-c3cc(CN(C)C)cs3)cnc2N)ccc1C(N)=O`: 32.7, 20.5 mL/min/kg, 157 mL/min/kg and 21.2 µg/mL (≈ 43.2 µM).
The matching figures for `N#CN1CCC[C@H](n2nc(-c3ccc(Oc4ccc(F)cc4F)cc3)c(C(N)=O)c2N)C1`: 33, at most 4.74 mL/min/kg, 68.2 mL/min/kg and 35.9 µg/mL (≈ 81.9 µM).
Consider `CNC(=O)c1ccc(N2CCCC2)nc1`, for which the MDR1-MDCK efflux ratio amounted to 0.58; the intrinsic clearance, human liver microsomes turned out to be 44.7 mL/min/kg; the intrinsic clearance, rat liver microsomes stood at 58.1 mL/min/kg; the aqueous solubility is 34.7 µg/mL (≈ 169 µM).
For the molecule `CC(C)c1noc(-c2ccc(N)cc2)n1`, the intrinsic clearance, human liver microsomes amounted to 47.1 mL/min/kg and the intrinsic clearance, rat liver microsomes is 158 mL/min/kg.
For `O=C(CN1CCCC(c2ccc3cn[nH]c3n2)C1)N1CCCC1` (stereo not given), the MDR1-MDCK efflux ratio came to 30.2; the intrinsic clearance, human liver microsomes was determined as 9.13 mL/min/kg; the intrinsic clearance, rat liver microsomes was 337 mL/min/kg; the aqueous solubility was found to be 38 µg/mL (≈ 121 µM).
In the case of `COc1ccccc1Oc1c(NS(=O)(=O)c2ccc(C(C)(C)C)cc2)nc(-c2ncccn2)nc1OCCO`, the MDR1-MDCK efflux ratio amounted to 88.2; the intrinsic clearance, human liver microsomes was 16 mL/min/kg; the intrinsic clearance, rat liver microsomes was determined as 71.8 mL/min/kg.
Take `Cc1ccccc1C(=O)Nc1nc(C)c(C)s1`: the MDR1-MDCK efflux ratio was 0.557; the intrinsic clearance, human liver microsomes turned out to be 90 mL/min/kg; the intrinsic clearance, rat liver microsomes was 280 mL/min/kg; the aqueous solubility stood at 30.4 µg/mL (≈ 123 µM).
The matching figures for `CCOc1ccccc1C(=O)N1CCC(c2nc(-c3ccc(OC)cc3)c(C(N)=O)[nH]2)CC1`: 47.7, 104 mL/min/kg, 237 mL/min/kg and 46.4 µg/mL (≈ 103 µM).
The matching figures for `Cc1ccc(NC(=O)c2cccc(N(C)C)c2)cc1NC(=O)c1ccc(O)cc1`: 16.6, 45.4 mL/min/kg, 307 mL/min/kg and 3.3 µg/mL (≈ 8.47 µM).
`COc1ccc(-c2ccc(CNc3ccc(CN4CCC(C)CC4)cc3)cc2)cc1` displayed an intrinsic clearance, human liver microsomes of 124 mL/min/kg; an intrinsic clearance, rat liver microsomes of 32.9 mL/min/kg; an aqueous solubility of 14.7 µg/mL (≈ 36.7 µM).
Turning to `COc1ccc(C2=N/C(=C/c3cc4ccccc4n3C(C)=O)C(=O)O2)cc1`, the aqueous solubility is 2.34 µg/mL (≈ 6.49 µM).
For the molecule `CC(C)c1ccc2c(c1)[C@H](NC(=O)Cn1ccnn1)CCC2`, the MDR1-MDCK efflux ratio came out at 3.4; the intrinsic clearance, human liver microsomes came to 88.8 mL/min/kg; the intrinsic clearance, rat liver microsomes came out at 297 mL/min/kg; the aqueous solubility came out at 12.6 µg/mL (≈ 42.1 µM).
Turning to `C[C@]1(O)CN(C(=O)Cn2cnc3ccccc3c2=O)CC[C@@H]1Oc1ccccc1`, the MDR1-MDCK efflux ratio turned out to be 11.7; the intrinsic clearance, human liver microsomes was found to be 7.14 mL/min/kg; the intrinsic clearance, rat liver microsomes came to 44.7 mL/min/kg.
Turning to `Cc1oc(C)c(C(=O)Nc2ccn(C)n2)c1C`, the MDR1-MDCK efflux ratio came to 0.597; the intrinsic clearance, human liver microsomes was determined as 75.4 mL/min/kg; the intrinsic clearance, rat liver microsomes turned out to be 93.7 mL/min/kg; the aqueous solubility was 36.7 µg/mL (≈ 157 µM).
For `Cc1ccccc1-c1cc(N)n(Cc2ccccc2)n1`, the intrinsic clearance, human liver microsomes came to 33.2 mL/min/kg and the intrinsic clearance, rat liver microsomes amounted to 302 mL/min/kg.
In the case of `CCNC(=O)c1ccc(-c2cc(C)cc(OC)c2OC)nc1`, the MDR1-MDCK efflux ratio is 0.998; the intrinsic clearance, human liver microsomes is at most 4.74 mL/min/kg; the intrinsic clearance, rat liver microsomes came out at 93.1 mL/min/kg; the aqueous solubility was 34.8 µg/mL (≈ 116 µM).
Turning to `Cc1ccc(NC(=O)CN2CCCN(c3ccc(C(F)(F)F)cn3)CC2)cc1`, the MDR1-MDCK efflux ratio was determined as 0.857; the intrinsic clearance, human liver microsomes was 126 mL/min/kg; the intrinsic clearance, rat liver microsomes is 602 mL/min/kg; the aqueous solubility turned out to be 12.9 µg/mL (≈ 33 µM).
Turning to `CC(C)CCN1CCc2nc3cc(C4CC4)nn3c(O)c2C1`, the MDR1-MDCK efflux ratio is 9.05; the intrinsic clearance, human liver microsomes came out at 7.62 mL/min/kg; the intrinsic clearance, rat liver microsomes worked out at 30.3 mL/min/kg.
Take `Cc1cccc(-c2nc(CN(Cc3cnn(C)c3)C(C)C)c(C)o2)c1`: the MDR1-MDCK efflux ratio turned out to be 1.24; the intrinsic clearance, human liver microsomes came to 62.6 mL/min/kg; the intrinsic clearance, rat liver microsomes was found to be 4560 mL/min/kg; the aqueous solubility turned out to be 21.4 µg/mL (≈ 63.4 µM).
Regarding `Fc1cc(-c2ccncc2)ccc1CNc1ncccn1`, the MDR1-MDCK efflux ratio came out at 0.843; the intrinsic clearance, human liver microsomes worked out at 24.4 mL/min/kg; the intrinsic clearance, rat liver microsomes was found to be 238 mL/min/kg.
Molecule `O=C(CNC(=O)c1ccccc1Cl)Nc1cccc2c1CCCC2` yielded an intrinsic clearance, human liver microsomes of 60 mL/min/kg and an intrinsic clearance, rat liver microsomes of 1840 mL/min/kg.
`O=C(CNC(=O)c1ccc(Cl)cc1)Nc1nc(-c2ccc3ccccc3c2)cs1` registered an aqueous solubility of 0.4 µg/mL (≈ 0.948 µM).
In turn, `N#CCCn1ncnc1-c1cccc(C#N)c1` displayed an intrinsic clearance, human liver microsomes of at most 4.74 mL/min/kg and an intrinsic clearance, rat liver microsomes of at most 10.7 mL/min/kg.
On to `CC(C)(O)CCn1cc2cc(NC(=O)c3cccc(C(F)(F)F)n3)c(C(C)(C)O)cc2n1`, for which the MDR1-MDCK efflux ratio came out at 10.2; the fraction unbound, human plasma turned out to be 0.104; the fraction unbound, rat plasma is 0.124; the intrinsic clearance, human liver microsomes stood at 9.92 mL/min/kg. This molecule also showed an intrinsic clearance, rat liver microsomes of 42.6 mL/min/kg.
Regarding `O=C(NCCNC(=O)c1cc(-c2ccccc2)nc2ccccc12)c1ccco1`, the MDR1-MDCK efflux ratio was found to be 10; the intrinsic clearance, human liver microsomes was 58.6 mL/min/kg; the intrinsic clearance, rat liver microsomes was 461 mL/min/kg; the aqueous solubility was determined as 37.6 µg/mL (≈ 97.7 µM).
